One data set concerns kallikrein. Kind of data set: anti-kallikrein activity, hydrolysis of TAME (tosylarginine methyl ester). Type of data set: biochemical. The method, then:
(§1) The values in Table 1 represent molar concentrations (IC50) of test compounds which inhibit 50% of the activity of each enzyme to hydrolyze TAME (tosylarginine methyl ester). The anti-trypsin, anti-plasmin, anti-kallikrein and anti-thrombin activities were determined according to the method of Muramatsu et al. (J. Biochem. (1965), volume 58, page 214).

The next data set in a line: in vivo. Particulars: rat. The method, then:
In the rat acute toxicity test, the LD50 was greater than 2,000 mg/kg (p.o. oral administration). The compound of Example 22 was tested in three groups.(five rats per group) of rats at dosages of (1) 2000 mg/kg, (2) 1000 mg/kg, and (3) 500 mg/kg; the compound was prepared in the form of a suspension in distilled water and administered orally.

For a further data set, the system named is Masugi's nephritis. Description: Effect of TO-195 on Masugi's nephritis. Type of data set: in vivo, rat. The note with it: oral.
In a further data set the target is thrombin (Homo sapiens, UniProt P00734). Description: anti-thrombin activity, hydrolysis of TAME (tosylarginine methyl ester). Type of data set: biochemical. The method, then:
as §1

A short description of data set [1]: Toxicity in humans (Phase I study). Type of data set: in vivo, human. The note with it: healthy male adult volunteers, capsules, 5 to 400 mg/man. Here is the method:
Toxicity in humans (Phase I study): This test was for confirmation of the safety of the drug (which was administered to healthy male adult volunteers). Taking into consideration the above toxicity tests, the compound of Example 22 was prepared in the form of capsules containing the compound in an increasing amount (from 5 mg/man to 400 mg/man (body weight 50-60 kg)).

Data set [2] can be described thus: monkey subacute toxicity test. Type of data set: in vivo. The note with it: oral. Here is the method:
The compound of Example 22 was tested in three groups (five monkeys per group) of monkeys at dosages of (1) 3 mg/kg/day, (2) 30 mg/kg/day, and (3) 300 mg/kg/day; the compound was administered orally (dose volume was 2 ml/kg) by gavage once a day for 13 weeks. Administration was followed by 20 ml sterile water per animal. Control monkeys received only the vehicle (sterile water for injection, U.S.P.) on the same regimen as the experimental groups. All doses were administered using a 18 French rubber catheter attached to a syringe.

The target of the next data set is T1, C1s (Homo sapiens, UniProt P09871).
T1 sequence (P09871 16-688): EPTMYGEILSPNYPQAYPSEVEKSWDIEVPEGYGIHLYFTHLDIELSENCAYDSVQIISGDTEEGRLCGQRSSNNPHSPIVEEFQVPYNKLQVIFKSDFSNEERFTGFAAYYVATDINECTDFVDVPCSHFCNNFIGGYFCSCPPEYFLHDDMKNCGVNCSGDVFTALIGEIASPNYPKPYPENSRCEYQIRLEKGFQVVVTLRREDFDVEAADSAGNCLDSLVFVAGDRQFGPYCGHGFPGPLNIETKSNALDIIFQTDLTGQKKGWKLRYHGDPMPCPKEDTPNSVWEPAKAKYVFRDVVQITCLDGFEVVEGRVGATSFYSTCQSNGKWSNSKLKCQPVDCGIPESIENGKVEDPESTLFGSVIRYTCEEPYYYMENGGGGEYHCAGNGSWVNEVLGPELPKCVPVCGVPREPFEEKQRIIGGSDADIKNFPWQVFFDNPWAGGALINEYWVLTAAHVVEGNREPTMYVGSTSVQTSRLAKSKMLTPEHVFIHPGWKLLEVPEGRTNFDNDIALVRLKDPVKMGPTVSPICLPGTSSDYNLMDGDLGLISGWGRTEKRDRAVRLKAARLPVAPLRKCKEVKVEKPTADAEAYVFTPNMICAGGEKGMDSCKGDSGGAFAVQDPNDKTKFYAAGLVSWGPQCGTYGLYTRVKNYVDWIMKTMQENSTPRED
Kind of data set: anti-complement (anti-C1 esterase) activity, C1s hydrolysis of ATEE (acetyltyrosine ethyl ester). Type of data set: biochemical.

The next data set addresses T2, C1r (Homo sapiens, UniProt P00736).
T2 sequence (P00736 18-705): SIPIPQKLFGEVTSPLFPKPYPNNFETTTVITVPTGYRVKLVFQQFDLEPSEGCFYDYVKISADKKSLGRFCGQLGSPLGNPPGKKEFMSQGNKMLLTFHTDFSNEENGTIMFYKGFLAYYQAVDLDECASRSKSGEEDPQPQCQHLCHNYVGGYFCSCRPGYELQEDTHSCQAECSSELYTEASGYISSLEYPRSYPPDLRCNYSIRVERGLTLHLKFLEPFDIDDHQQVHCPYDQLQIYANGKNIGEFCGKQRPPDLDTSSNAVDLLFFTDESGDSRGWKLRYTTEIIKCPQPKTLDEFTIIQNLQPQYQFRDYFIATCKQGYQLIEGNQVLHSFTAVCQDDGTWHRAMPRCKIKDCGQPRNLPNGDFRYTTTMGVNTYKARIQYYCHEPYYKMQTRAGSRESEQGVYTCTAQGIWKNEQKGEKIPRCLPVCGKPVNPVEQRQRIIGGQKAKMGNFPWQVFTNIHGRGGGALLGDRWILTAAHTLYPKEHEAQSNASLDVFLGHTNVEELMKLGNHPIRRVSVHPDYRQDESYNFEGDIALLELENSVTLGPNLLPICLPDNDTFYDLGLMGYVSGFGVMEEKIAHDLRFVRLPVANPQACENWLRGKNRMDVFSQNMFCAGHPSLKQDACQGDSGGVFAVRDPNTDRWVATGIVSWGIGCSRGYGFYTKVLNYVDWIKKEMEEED
Kind of data set: anti-complement (anti-C1 esterase) activity, C1r hydrolysis of AAME (acetyl-arginine methyl ester). Type of data set: biochemical.

The target of the next data set is plasmin (Homo sapiens, UniProt P00747). Description: anti-plasmin activity, hydrolysis of TAME (tosylarginine methyl ester). Type of data set: biochemical. Particulars: hydrolysis of TAME; read-out: Pla: molar concentration inhibiting 50% of enzyme activity (IC50). The method, then: as §1
plasmin, sequence (P00747 581-810 limits assumed, species assumed): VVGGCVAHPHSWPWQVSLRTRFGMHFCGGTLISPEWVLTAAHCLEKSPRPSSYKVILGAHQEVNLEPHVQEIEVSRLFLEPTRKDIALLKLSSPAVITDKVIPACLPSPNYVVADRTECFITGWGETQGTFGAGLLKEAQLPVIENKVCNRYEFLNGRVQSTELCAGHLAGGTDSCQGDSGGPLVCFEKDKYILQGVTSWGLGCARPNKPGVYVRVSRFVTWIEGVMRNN
plasmin, sequence (P00747 97-580 partner limits assumed, species assumed): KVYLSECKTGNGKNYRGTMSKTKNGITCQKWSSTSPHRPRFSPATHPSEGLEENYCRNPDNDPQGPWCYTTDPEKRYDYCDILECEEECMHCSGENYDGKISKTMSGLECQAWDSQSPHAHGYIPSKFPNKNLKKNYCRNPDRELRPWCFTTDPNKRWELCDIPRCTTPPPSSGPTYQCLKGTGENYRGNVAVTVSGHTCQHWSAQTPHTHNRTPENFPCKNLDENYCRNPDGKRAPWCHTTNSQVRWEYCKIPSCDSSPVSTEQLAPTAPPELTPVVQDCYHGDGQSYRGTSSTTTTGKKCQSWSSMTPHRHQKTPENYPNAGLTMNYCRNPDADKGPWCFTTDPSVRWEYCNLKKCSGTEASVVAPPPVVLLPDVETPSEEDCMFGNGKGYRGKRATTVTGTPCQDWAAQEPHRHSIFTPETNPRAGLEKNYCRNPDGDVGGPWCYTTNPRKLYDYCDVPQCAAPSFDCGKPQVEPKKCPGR

Protocol for C1s: The anti-C1 esterase (C1r, C1s) activity was determined according to the method of Okamura et al. (Biochem. Biophys. Acta (1973), volume 295, pages 252-257). […] The values for C1s represent molar concentrations (IC50) of test compounds which inhibit 50% of the activity of C1s to hydrolyze ATEE (acetyltyrosine ethyl ester).

With `Cl.N=C(N)c1ccc2cc(OC(=O)c3ccc(CNC(=O)CCCC(=O)O)o3)ccc2c1` [Example 22, 6-Amidino-2-naphthyl 5-(4-carboxybutyrylaminomethyl)furan-2-carboxylate hydrochloride], the “kallikrein inhibition (in words)” value with kallikrein was “inhibitor”. Moreover, the IC50 in the data set with kallikrein (hydrolysis of TAME, read-out: Kal: molar concentration inhibiting 50% of enzyme activity (IC50)) was 470 nM; at thrombin (hydrolysis of TAME, read-out: Thr: molar concentration inhibiting 50% of enzyme activity (IC50)), 3.5 µM; on C1s (hydrolysis of ATEE, read-out: Cls: molar concentration inhibiting 50% of C1s activity (IC50)) it was 250 nM; on plasmin it was 430 nM. In addition, the LD50 at 336 h in “in vivo” (in vivo, po) was above 2000 mg/kg. Also, in “in vivo” (oral, up to 2,000 mg/kg, two weeks observation), the “general conditions and survival (in words)” value was “no changes were found”. For the same compound, the “urinary protein excretion (in words)” value in the data set with Masugi's nephritis (3, 10, or 30 mg/kg×2/day, from 2 days before through day 10 after nephrotoxin) was “significantly decreased urinary protein excretion”; with Masugi's nephritis (twice a day from day 4 to day 10 after nephrotoxin) it was “significantly decreased urinary protein excretion”. In the data set on Masugi's nephritis (10 and 30 mg/kg×2/day, compared to control group), the “Light microscopic examination of the glomeruli (in words)” value is “significant anti-nephritic effect”. Also, on thrombin, the “thrombin inhibition (in words)” value was “inhibitor”. Besides, the “adverse side effects (in words)” value in [1] is listed as “No adverse side effects were found”. In data set [2] (13 weeks, up to 300 mg/kg/day), the “general conditions, biochemical examination, and survival (in words)” value is “no changes were found”. For the same compound, in data set [2] (three months, even at 300 mg/kg), the “toxicity (in words)” value was “no toxicity was recognized”. Further, the “C1s inhibition (in words)” value at C1s was “inhibitor”. Further, the “C1r inhibition (in words)” value on C1r is “inhibitor”. In addition, at C1r (at a concentration of 1 × 10^-5 M, read-out: Clr: percentage inhibition), the inhibition at 10 µM worked out at 49%.

Values taken from US5532267A, “Amidinonaphthyl furancarboxylate derivatives and acid addition salts therof” (Torii & Co., Ltd., priority 1992, dated 1996).
